The record followed here is patent US6387905B2, “Compounds useful for inhibition of farnesyl protein transferase” (Schering Corporation, priority 1996, dated 2002).

Like-named read-outs stand apart in the source and are kept apart here.

One assay deals with COS Cell. Briefly: COS Cell IC50 (Cell-Based Assay). To be noted: COS, Table 5; read-out: Cos Cell IC50. The method, then:
(§1) FPT IC50 (inhibition of farnesyl protein transferase, in vitro enzyme assay) and COS Cell IC50 (Cell-Based Assay) were determined following the assay procedures described in WO 95/10516, published Apr. 20, 1995. GGPT IC50 (inhibition of geranylgeranyl protein transferase, in vitro enzyme assay), Cell Mat Assay, and anti-tumor activity (in vivo anti-tumor studies) could be determined by the assay procedures described in WO 95/10516. The disclosure of WO 95/10516 is incorporated herein by reference thereto.

For assay [1], the target named is farnesyl protein transferase (FPT), H-ras (Homo sapiens, UniProt P49354+P49356). Put plainly: FPT IC50 (H-ras), inhibition of farnesyl protein transferase, in vitro enzyme assay. To be noted: Table 4; read-out: FPT IC50. In kind it is biochemical. The method, then: as §1
For a further assay, the system named is Human tumor cells. Briefly: Soft Agar Assay (anchorage-independent growth). The class given is cell-based. To be noted: Table 5, read-out: Soft Agar IC50. The method, then:
Anchorage-independent growth is a characteristic of tumorgenic cell lines. Human tumor cells are suspended in growth medium containing 0.3% agarose and an indicated concentration of a farnesyl transferase inhibitor. The solution is overlayed onto growth medium solidified with 0.6% agarose containing the same concentration of farnesyl transferase inhibitor as the top layer. After the top layer is solidified, plates are incubated for 10-16 days at 37° C. under 5% CO2 to allow colony outgrowth. After incubation, the colonies are stained by overlaying the agar with a solution of MTT (3-[4,5-dimethyl-thiazol-2-yl]-2,5-diphenyltetrazolium bromide, Thiazolyl blue) (1 mg/mL in PBS). Colonies can be counted and the IC50's can be determined.

With `O=C(O)c1cccn1CC(=O)N1CCC(CC(=O)N2CCC([C@H]3c4ncc(Br)cc4CCc4cc(Cl)cc(Br)c43)CC2)CC1` [Cmpd 52.0-B], the IC50 (as a rule, the concentration that inhibits the measured activity by half) with COS Cell came to 400 nM; in assay [1], 1.3 nM; in the assay on Human tumor cells (Homo sapiens), 500 nM.

Regarding `CCOC(=O)c1ncn(CC(=O)N2CCC(CC(=O)N3CCC([C@H]4c5ncc(Br)cc5CCc5cc(Cl)cc(Br)c54)CC3)CC2)c1C` [Cmpd 54.0-B], the results for the IC50 (in the assay with COS Cell; in assay [1]; with Human tumor cells (Homo sapiens)) were 100 nM, 3.9 nM and greater than 500 nM, respectively.

Turning to `O=C(OCc1ccccc1)c1cccn1CC(=O)N1CCC(CC(=O)N2CCC([C@H]3c4ncc(Br)cc4CCc4cc(Cl)cc(Br)c43)CC2)CC1` [Cmpd 55.0-B], the IC50 was 200 nM in the assay with COS Cell, 9.2 nM in assay [1] and greater than 500 nM with Human tumor cells (Homo sapiens).

With `COC(=O)Cc1cn(CC(=O)N2CCC(CC(=O)N3CCC([C@H]4c5ncc(Br)cc5CCc5cc(Cl)cc(Br)c54)CC3)CC2)cn1` [Cmpd 56.0-B], the figures for the IC50 (in the assay on COS Cell; in assay [1]; with Human tumor cells (Homo sapiens)) were 50 nM, 3.3 nM and greater than 500 nM, respectively.

On to `O=C(CC1CCN(C(=O)Cn2cncn2)CC1)N1CCC([C@H]2c3ncc(Br)cc3CCc3cc(Cl)cc(Br)c32)CC1` [Cmpd 57.0-B], for which the IC50 was less than 10 nM with COS Cell, 1.8 nM in assay [1] and 110 nM with Human tumor cells (Homo sapiens).

Turning to `O=C(O)NC(=O)C(=O)N1CCC(CC(=O)N2CCC([C@H]3c4ncc(Br)cc4CCc4cc(Cl)cc(Br)c43)CC2)CC1` [Cmpd 59.0-B], the results for the IC50 (with COS Cell; in assay [1]; in the assay on Human tumor cells (Homo sapiens)) were 50 nM, 4 nM and 500 nM, respectively.

Regarding `O=C(NOCc1ccccc1)C(=O)N1CCC(CC(=O)N2CCC([C@H]3c4ncc(Br)cc4CCc4cc(Cl)cc(Br)c43)CC2)CC1` [Cmpd 60.0-B], the values for the IC50 (in the assay with COS Cell; in assay [1]; in the assay with Human tumor cells (Homo sapiens)) were 120 nM, 5.4 nM and 500 nM, respectively.

In the case of `O=C(CC1CCN(C(=O)C2CC(O)CN2)CC1)N1CCC([C@H]2c3ncc(Br)cc3CCc3cc(Cl)cc(Br)c32)CC1` (stereo partly shown) [Cmpd 63.0-B], the IC50 in the assay with COS Cell turned out to be 55 nM; in assay [1], 3.5 nM; with Human tumor cells (Homo sapiens), 500 nM.

With `NC(=O)CCC(=O)N1CCC(CC(=O)N2CCC([C@H]3c4ncc(Br)cc4CCc4cc(Cl)cc(Br)c43)CC2)CC1` [Cmpd 69.0-B], the values for the IC50 (with COS Cell; in assay [1]; in the assay on Human tumor cells (Homo sapiens)) were 25 nM, 2.5 nM and 190 nM, respectively.

On to `NC(=O)CCCCCC(=O)N1CCC(CC(=O)N2CCC([C@H]3c4ncc(Br)cc4CCc4cc(Cl)cc(Br)c43)CC2)CC1` [Cmpd 71.0-B], for which the half-inhibitory concentration (IC50) with COS Cell came to 19 nM; in assay [1], 3.3 nM; with Human tumor cells (Homo sapiens), 240 nM.

As for `CC(=O)C(=O)N1CCC(CC(=O)N2CCC([C@H]3c4ncc(Br)cc4CCc4cc(Cl)cc(Br)c43)CC2)CC1` [Cmpd 72.0-B], the IC50 in the assay with COS Cell came out at 10 nM; in assay [1] it was 5.4 nM; with Human tumor cells (Homo sapiens), 320 nM.

`O=C(CC1CCN(C(=O)CN2CCCCC2)CC1)N1CCC([C@H]2c3ncc(Br)cc3CCc3cc(Cl)cc(Br)c32)CC1` [Cmpd 75.0-B]: the concentration for half-maximal inhibition (IC50) with COS Cell was found to be 10 nM; in assay [1], 4.7 nM; with Human tumor cells (Homo sapiens) it was 150 nM.

As for `O=C1NC(=O)C(CC(=O)N2CCC(CC(=O)N3CCC([C@H]4c5ncc(Br)cc5CCc5cc(Cl)cc(Br)c54)CC3)CC2)N1` (stereo partly shown) [Cmpd 77.0-B], the IC50 with COS Cell worked out at 14 nM; in assay [1], 3.2 nM; in the assay on Human tumor cells (Homo sapiens) it was 240 nM; with Human tumor cells it was 214 nM.

For `O=C(CC1CCN(C(=O)CN2C(=O)CSC2=O)CC1)N1CCC([C@H]2c3ncc(Br)cc3CCc3cc(Cl)cc(Br)c32)CC1` [Cmpd 79.0-B], the figures for the IC50 (with COS Cell; in assay [1]; in the assay on Human tumor cells (Homo sapiens)) were 150 nM, 4.4 nM and greater than 500 nM, respectively.

On to `O=C(C(=O)N1CCC(CC(=O)N2CCC([C@H]3c4ncc(Br)cc4CCc4cc(Cl)cc(Br)c43)CC2)CC1)c1cccs1` [Cmpd 81.0-B], for which the IC50 is 28 nM with COS Cell, 9.3 nM in assay [1] and greater than 500 nM in the assay with Human tumor cells (Homo sapiens).
